Test results published in patent US20250051356A1, “RIFABUTIN ANALOGS FOR THE TREATMENT OF DISEASE” (priority 2021, published 2025).
In brackets after ≈: the same amount, converted by molar mass.

What was measured:
Type in all cases: cell-based
[1] = tested on: S. aureus (UAMS-1625 strain); experiment: MIC by broth microdilution against S. aureus; conditions: Staphylococcus aureus, read-out: MIC S. aureus
[2] = tested on: A. baumannii (HUMC1 strain); experiment: MIC by broth microdilution against A. baumannii in RPMI + 10% FCS; conditions: Acinetobacter baumannii; HUMC1 strain; RPMI + 10% FCS; read-out: MIC A. baumannii
[3] = tested on: M. abscessus subsp. abscessus ATCC 19977; experiment: MIC against M. abscessus in Middlebrook 7H9 + ADC; conditions: Mycobacteroides abscessus, ATCC19977; ATCC 19977; 7H9 + ADC; read-out: MIC M. abscessus

| Structure (SMILES) | MIC [1] [µg/mL] | MIC [2] [µg/mL] | MIC [3] [µg/mL] |
| --- | --- | --- | --- |
| CO[C@H]1/C=C/O[C@@]2(C)Oc3c(C)c(O)c4c(c3C2=O)C2=NC3(CCN(CC(C)C)CC3)NC2=C(NC(=O)/C(C)=C\C=C\[C@H](C)[C@H](O)[C@@H](C)[C@@H](O)[C@@H](C)[C@H](OC(=O)CC(=O)NCC2CCN(C)CC2)[C@@H]1C)C4=O [Compound 5] | 0.125 (≈ 0.125 µM) | ≤ 0.002 | 1 |
| CO[C@H]1/C=C/O[C@@]2(C)Oc3c(C)c(O)c4c(c3C2=O)C2=NC3(CCN(CC(C)C)CC3)NC2=C(NC(=O)/C(C)=C\C=C\[C@H](C)[C@H](O)[C@@H](C)[C@@H](O)[C@@H](C)[C@H](OC(=O)CC(=O)NC2CCN(C)CC2)[C@@H]1C)C4=O [Compound 6] | 0.03 (≈ 0.0304 µM) | ≤ 0.002 | 1 |
| CO[C@H]1/C=C/O[C@@]2(C)Oc3c(C)c(O)c4c(c3C2=O)C2=NC3(CCN(CC(C)C)CC3)NC2=C(NC(=O)/C(C)=C\C=C\[C@H](C)[C@H](O)[C@@H](C)[C@@H](O)[C@@H](C)[C@H](OC(=O)CC(=O)N2CCC(N(C)C)CC2)[C@@H]1C)C4=O [Compound 7] | 0.016 (≈ 0.016 µM) | ≤ 0.002 | 1 |
| CO[C@H]1/C=C/O[C@@]2(C)Oc3c(C)c(O)c4c(c3C2=O)C2=NC3(CCN(CC(C)C)CC3)NC2=C(NC(=O)/C(C)=C\C=C\[C@H](C)[C@H](O)[C@@H](C)[C@@H](O)[C@@H](C)[C@H](OC(=O)CC(=O)N2CCCCC2)[C@@H]1C)C4=O [Compound 8] | 0.016 (≈ 0.0167 µM) | 0.004 | 0.5 |
| CO[C@H]1/C=C/O[C@@]2(C)Oc3c(C)c(O)c4c(c3C2=O)C2=NC3(CCN(CC(C)C)CC3)NC2=C(NC(=O)/C(C)=C\C=C\[C@H](C)[C@H](O)[C@@H](C)[C@@H](O)[C@@H](C)[C@H](OC(=O)CC(=O)N2CCN(C)CC2)[C@@H]1C)C4=O [Compound 10] | 0.016 (≈ 0.0164 µM) | ≤ 0.002 | 1 |
| CO[C@H]1/C=C/O[C@@]2(C)Oc3c(C)c(O)c4c(c3C2=O)C2=NC3(CCN(CC(C)C)CC3)NC2=C(NC(=O)/C(C)=C\C=C\[C@H](C)[C@H](O)[C@@H](C)[C@@H](O)[C@@H](C)[C@H](OC(=O)CC(=O)N2CCN(c3ccccc3S(N)(=O)=O)CC2)[C@@H]1C)C4=O [Compound 12] | 0.125 (≈ 0.112 µM) | 0.03 | 0.5 |
| CO[C@H]1/C=C/O[C@@]2(C)Oc3c(C)c(O)c4c(c3C2=O)C2=NC3(CCN(CC(C)C)CC3)NC2=C(NC(=O)/C(C)=C\C=C\[C@H](C)[C@H](O)[C@@H](C)[C@@H](O)[C@@H](C)[C@H](OC(=O)CC(=O)N2CCC(N3CCN(C)C(=O)C3)CC2)[C@@H]1C)C4=O [Compound 15] | 0.016 (≈ 0.0149 µM) | 0.004 | 1 |
| CCOC(=O)CCNC(=O)CC(=O)O[C@H]1[C@H](C)[C@H](O)[C@H](C)[C@@H](O)[C@@H](C)/C=C/C=C(/C)C(=O)NC2=C3NC4(CCN(CC(C)C)CC4)N=C3c3c(c(O)c(C)c4c3C(=O)[C@@](C)(O/C=C/[C@H](OC)[C@H]1C)O4)C2=O [Compound 16] | 0.03 (≈ 0.0303 µM) | 0.004 | 2 |
| COC(=O)CNC(=O)CC(=O)O[C@H]1[C@H](C)[C@H](O)[C@H](C)[C@@H](O)[C@@H](C)/C=C/C=C(/C)C(=O)NC2=C3NC4(CCN(CC(C)C)CC4)N=C3c3c(c(O)c(C)c4c3C(=O)[C@@](C)(O/C=C/[C@H](OC)[C@H]1C)O4)C2=O [Compound 17] | 0.03 (≈ 0.0312 µM) | ≤ 0.002 | 2 |
| CO[C@H]1/C=C/O[C@@]2(C)Oc3c(C)c(O)c4c(c3C2=O)C2=NC3(CCN(CC(C)C)CC3)NC2=C(NC(=O)/C(C)=C\C=C\[C@H](C)[C@H](O)[C@@H](C)[C@@H](O)[C@@H](C)[C@H](OC(=O)CC(=O)Nc2ccc(CN3CCCCC3)cc2)[C@@H]1C)C4=O [Compound 18] | 0.06 (≈ 0.0564 µM) | ≤ 0.002 | 1 |
| CO[C@H]1/C=C/O[C@@]2(C)Oc3c(C)c(O)c4c(c3C2=O)C2=NC3(CCN(CC(C)C)CC3)NC2=C(NC(=O)/C(C)=C\C=C\[C@H](C)[C@H](O)[C@@H](C)[C@@H](O)[C@@H](C)[C@H](OC(=O)CC(=O)NCCN2CCN(C)CC2)[C@@H]1C)C4=O [Compound 20] | 0.03 (≈ 0.0295 µM) | ≤ 0.002 | 1 |
| CO[C@H]1/C=C/O[C@@]2(C)Oc3c(C)c(O)c4c(c3C2=O)C2=NC3(CCN(CC(C)C)CC3)NC2=C(NC(=O)/C(C)=C\C=C\[C@H](C)[C@H](O)[C@@H](C)[C@@H](O)[C@@H](C)[C@H](OC(=O)CC(=O)NCCN2CCOCC2)[C@@H]1C)C4=O [Compound 23] | 0.03 (≈ 0.0299 µM) | ≤ 0.002 | 1 |
| CO[C@H]1/C=C/O[C@@]2(C)Oc3c(C)c(O)c4c(c3C2=O)C2=NC3(CCN(CC(C)C)CC3)NC2=C(NC(=O)/C(C)=C\C=C\[C@H](C)[C@H](O)[C@@H](C)[C@@H](O)[C@@H](C)[C@H](OC(=O)CC(=O)OCc2ccccc2)[C@@H]1C)C4=O [Compound 26] | 0.5 (≈ 0.51 µM) | 0.03 | 4 |
| CO[C@H]1/C=C/O[C@@]2(C)Oc3c(C)c(O)c4c(c3C2=O)C2=NC3(CCN(CC(C)C)CC3)NC2=C(NC(=O)/C(C)=C\C=C\[C@H](C)[C@H](O)[C@@H](C)[C@@H](O)[C@@H](C)[C@H](OC(=O)CC(=O)OCC(C)C)[C@@H]1C)C4=O [Compound 27] | 0.125 (≈ 0.132 µM) | 0.016 | 4 |
| CO[C@H]1/C=C/O[C@@]2(C)Oc3c(C)c(O)c4c(c3C2=O)C2=NC3(CCN(CC(C)C)CC3)NC2=C(NC(=O)/C(C)=C\C=C\[C@H](C)[C@H](O)[C@@H](C)[C@@H](O)[C@@H](C)[C@H](OC(=O)CC(=O)NCCCN(C)C)[C@@H]1C)C4=O [Compound 29] | 0.03 (≈ 0.0308 µM) | ≤ 0.002 | 1 |
| CO[C@H]1/C=C/O[C@@]2(C)Oc3c(C)c(O)c4c(c3C2=O)C2=NC3(CCN(CC(C)C)CC3)NC2=C(NC(=O)/C(C)=C\C=C\[C@H](C)[C@H](O)[C@@H](C)[C@@H](O)[C@@H](C)[C@H](OC(=O)CC(=O)NCCN(C)C)[C@@H]1C)C4=O [Compound 30] | 0.03 (≈ 0.0312 µM) | ≤ 0.002 | 1 |
| CO[C@H]1/C=C/O[C@@]2(C)Oc3c(C)c(O)c4c(c3C2=O)C2=NC3(CCN(CC(C)C)CC3)NC2=C(NC(=O)/C(C)=C\C=C\[C@H](C)[C@H](O)[C@@H](C)[C@@H](O)[C@@H](C)[C@H](OC(=O)CC(=O)OCCc2ccccc2)[C@@H]1C)C4=O [Compound 31] | 1 (≈ 1 µM) | 0.125 | 4 |
| COCCCNC(=O)CC(=O)O[C@H]1[C@H](C)[C@H](O)[C@H](C)[C@@H](O)[C@@H](C)/C=C/C=C(/C)C(=O)NC2=C3NC4(CCN(CC(C)C)CC4)N=C3c3c(c(O)c(C)c4c3C(=O)[C@@](C)(O/C=C/[C@H](OC)[C@H]1C)O4)C2=O [Compound 34] | 0.016 (≈ 0.0166 µM) | ≤ 0.002 | 1 |
| CO[C@H]1/C=C/O[C@@]2(C)Oc3c(C)c(O)c4c(c3C2=O)C2=NC3(CCN(CC(C)C)CC3)NC2=C(NC(=O)/C(C)=C\C=C\[C@H](C)[C@H](O)[C@@H](C)[C@@H](O)[C@@H](C)[C@H](OC(=O)CC(=O)Nc2ccc(CN3CCN(C)CC3)cc2)[C@@H]1C)C4=O [Compound 36] | 0.016 (≈ 0.0148 µM) | ≤ 0.002 | 1 |
| CO[C@H]1/C=C/O[C@@]2(C)Oc3c(C)c(O)c4c(c3C2=O)C2=NC3(CCN(CC(C)C)CC3)NC2=C(NC(=O)/C(C)=C\C=C\[C@H](C)[C@H](O)[C@@H](C)[C@@H](O)[C@@H](C)[C@H](OC(=O)C(C)C(=O)N2CCCCC2)[C@@H]1C)C4=O (stereo partly drawn) [Compound 37] | 0.03 (≈ 0.0309 µM) | ≤ 0.002 | 0.5 |
